Among the data in PubChem BioAssay AID256 (DTP/NCI, 2004) are T/C values, retold here.

Structures are written as SMILES. “And” between values parts separate entries of the source, which are not always exact repeats. Identical values can stand only once. Inconclusive results and toxic doses are left out.

The test system of this test is CD2F1 mice, L1210 leukemia ip, survival T/C. In words: NCI In Vivo Anticancer Drug Screen. Data for tumor model L1210 Leukemia (intraperitoneal) in CD2F1 (CDF1) mice. The note with it: endpoint: mean survival time, higher = longer survival. The essentials: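 Tumor-bearing mice (transplanted tumor) were split into treated and vehicle control groups, and the measured endpoint of each treated group was divided by that of its vehicle controls.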

[1] abbreviates: dose: 100.0 mg/kg/injection, schedule: Q04DX003 (ip), vehicle: saline with Tween-80.
[2] abbreviates: dose: 200.0 mg/kg/injection, schedule: Q04DX003 (ip), vehicle: saline with Tween-80.
[3] abbreviates: dose: 400.0 mg/kg/injection, schedule: Q04DX003 (ip), vehicle: saline with Tween-80.

As to `CC(=O)OCC1OC(n2nc(C#N)c(C#N)n2)C(OC(C)=O)C1OC(C)=O` (stereo unspecified), the T/C is 106 % of control (dose: 12.5 mg/kg/injection, schedule: Q01DX005 (ip), vehicle: distilled water + Tween-80); 101 % of control and 106 % of control (dose: 25.0 mg/kg/injection, schedule: Q01DX005 (ip), vehicle: distilled water + Tween-80); 98 % of control and 112 % of control (dose: 50.0 mg/kg/injection, schedule: Q01DX005 (ip), vehicle: distilled water + Tween-80); 115 % of control and 104 % of control (dose: 100.0 mg/kg/injection, schedule: Q01DX005 (ip), vehicle: distilled water + Tween-80); 121 % of control and 104 % of control (dose: 200.0 mg/kg/injection, schedule: Q01DX005 (ip), vehicle: distilled water + Tween-80); 106 % of control (dose: 400.0 mg/kg/injection, schedule: Q01DX005 (ip), vehicle: distilled water + Tween-80).
As to `OC(Cc1[nH]c2ccccc2c1C(O)(C(F)(F)F)C(F)(F)F)(C(F)(F)F)C(F)(F)F`, the T/C reads like this: (dose: 100.0 mg/kg/injection, schedule: Q01DX009 (ip), vehicle: other) 101 % of control; (dose: 200.0 mg/kg/injection, schedule: Q01DX009 (ip), vehicle: other) 110 % of control; (dose: 400.0 mg/kg/injection, schedule: Q01DX009 (ip), vehicle: other) 94 % of control.
Consider `CC12CCC(C(CO)C1=O)C2(C)C` (stereo unspecified), for which the T/C (dose: 75.0 mg/kg/injection, schedule: Q01DX001 (ip), vehicle: saline) is 98 % of control; the T/C (dose: 150.0 mg/kg/injection, schedule: Q01DX001 (ip), vehicle: saline) is 98 % of control; the T/C (dose: 300.0 mg/kg/injection, schedule: Q01DX001 (ip), vehicle: saline) is 98 % of control.
As for `CC(=O)C(C)(C)N(C)c1ccccc1`, the T/C runs as follows: (dose: 100.0 mg/kg/injection, schedule: Q04DX003 (ip), vehicle: saline) 97 % of control; (dose: 200.0 mg/kg/injection, schedule: Q04DX003 (ip), vehicle: saline) 93 % of control; (dose: 400.0 mg/kg/injection, schedule: Q04DX003 (ip), vehicle: saline) 93 % of control.
For the molecule `CN1C2CCC1CNC2`, the T/C runs as follows: under setting [1], 103 % of control; under setting [2], 101 % of control; under setting [3], 103 % of control.
In the case of `Cc1ccccc1NC(=O)Oc1ccc(C(C)(C)C)cc1`, the T/C reads like this: (dose: 100.0 mg/kg/injection, schedule: Q04DX002 (ip), vehicle: saline with Tween-80) 97 % of control; (dose: 200.0 mg/kg/injection, schedule: Q04DX002 (ip), vehicle: saline with Tween-80) 86 % of control; (dose: 400.0 mg/kg/injection, schedule: Q04DX002 (ip), vehicle: saline with Tween-80) 89 % of control.
Regarding `CC12OCCN1CC(COc1ccccc1)O2` (stereo unspecified), the T/C is, setting by setting: under setting [1], 104 % of control; under setting [2], 98 % of control; under setting [3], 110 % of control.
In the case of `O=c1scc(-c2ccc(C(F)(F)F)cc2)s1`, the T/C (dose: 12.5 mg/kg/injection, schedule: Q01DX009 (ip), vehicle: Klucel (hydroxypropylcellulose) (HPC)) was 100 % of control and the T/C (dose: 25.0 mg/kg/injection, schedule: Q01DX009 (ip), vehicle: Klucel (hydroxypropylcellulose) (HPC)) was 91 % of control.
Regarding `CC[C@@]1(O)C(=O)OCc2c1cc1n(c2=O)Cc2cc3c(OC)cccc3nc2-1`, the T/C is 105 % of control (dose: 0.13 mg/kg/injection, schedule: Q01DX009 (ip), vehicle: saline with Tween-80); 111 % of control (dose: 0.25 mg/kg/injection, schedule: Q01DX009 (ip), vehicle: saline with Tween-80); 101 % of control (dose: 1.0 mg/kg/injection, schedule: Q01DX009 (ip), vehicle: saline with Tween-80); 105 % of control (dose: 1.0 mg/kg/injection, schedule: Q04DX003 (ip), vehicle: other); 157 % of control (dose: 1.56 mg/kg/injection, schedule: Q01DX009 (ip), vehicle: saline with Tween-80); 155 % of control (dose: 2.0 mg/kg/injection, schedule: Q04DX003 (ip), vehicle: other). Further, the T/C reads like this: (dose: 2.25 mg/kg/injection, schedule: Q01DX009 (ip), vehicle: saline) 158 % of control; (dose: 3.13 mg/kg/injection, schedule: Q01DX009 (ip), vehicle: saline with Tween-80) 86 % of control; (dose: 3.8 mg/kg/injection, schedule: Q04DX003 (ip), vehicle: water) 154 % of control; (dose: 4.0 mg/kg/injection, schedule: Q04DX003 (ip), vehicle: other) 153 % of control; (dose: 7.5 mg/kg/injection, schedule: Q04DX003 (ip), vehicle: water) 90 % of control; (dose: 8.0 mg/kg/injection, schedule: Q04DX003 (ip), vehicle: other) 164 % of control.
With `O=C1C=CC(=O)N1c1cc(Cl)ccc1Cl`, the T/C under setting [1] is 93 % of control and the T/C under setting [2] was 93 % of control.
`NC(Cc1cc(I)c(Oc2cc(I)c(O)c(I)c2)c(I)c1)C(=O)O` (stereo unspecified): the T/C was 96 % of control (dose: 0.04 mg/kg/injection, schedule: Q01DX009 (ip), vehicle: saline + alcohol); 88 % of control and 96 % of control (dose: 0.04 mg/kg/injection, schedule: Q01DX009 (ip), vehicle: saline); 102 % of control (dose: 0.16 mg/kg/injection, schedule: Q01DX009 (ip), vehicle: saline + alcohol); 91 % of control and 98 % of control (dose: 0.16 mg/kg/injection, schedule: Q01DX009 (ip), vehicle: saline); 93 % of control (dose: 0.25 mg/kg/injection, schedule: Q01DX009 (ip), vehicle: saline); 94 % of control (dose: 0.63 mg/kg/injection, schedule: Q01DX009 (ip), vehicle: saline). Further, the T/C runs as follows: (dose: 0.64 mg/kg/injection, schedule: Q01DX009 (ip), vehicle: saline + alcohol) 94 % of control; (dose: 0.64 mg/kg/injection, schedule: Q01DX009 (ip), vehicle: saline) 87 % of control and 94 % of control; (dose: 1.0 mg/kg/injection, schedule: Q01DX009 (ip), vehicle: saline) 96 % of control; (dose: 2.0 mg/kg/injection, schedule: Q01DX009 (ip), vehicle: saline) 88 % of control; (dose: 2.5 mg/kg/injection, schedule: Q01DX009 (ip), vehicle: saline + alcohol) 93 % of control; (dose: 2.5 mg/kg/injection, schedule: Q01DX009 (ip), vehicle: saline) 91 % of control and 92 % of control and 94 % of control. Besides, the T/C runs as follows: (dose: 8.0 mg/kg/injection, schedule: Q01DX009 (ip), vehicle: saline) 86 % of control and 88 % of control and 90 % of control; (dose: 10.0 mg/kg/injection, schedule: Q01DX009 (ip), vehicle: saline + alcohol) 94 % of control; (dose: 10.0 mg/kg/injection, schedule: Q01DX009 (ip), vehicle: saline) 89 % of control and 90 % of control and 92 % of control; (dose: 16.0 mg/kg/injection, schedule: Q01DX009 (ip), vehicle: saline) 86 % of control and 89 % of control; (dose: 32.0 mg/kg/injection, schedule: Q01DX009 (ip), vehicle: saline) 83 % of control and 89 % of control; (dose: 40.0 mg/kg/injection, schedule: Q01DX009 (ip), vehicle: saline) 88 % of control. Also, the T/C is 87 % of control and 89 % of control (dose: 64.0 mg/kg/injection, schedule: Q01DX009 (ip), vehicle: saline); 87 % of control and 90 % of control (dose: 128.0 mg/kg/injection, schedule: Q01DX009 (ip), vehicle: saline).
For `O=S1CCCO1` (stereo unspecified), the T/C (dose: 18.8 mg/kg/injection, schedule: Q04DX003 (ip), vehicle: saline) was 101 % of control.
For `OC1CCCCC1O` (stereo unspecified), the T/C is, setting by setting: under setting [1], 101 % of control; under setting [2], 100 % of control; under setting [3], 103 % of control.
On to `C=CCN(CC#N)CC#N`, for which the T/C (dose: 2.5 mg/kg/injection, schedule: Q04DX003 (ip), vehicle: Klucel (hydroxypropylcellulose) (HPC)) is 106 % of control; the T/C (dose: 5.0 mg/kg/injection, schedule: Q04DX003 (ip), vehicle: Klucel (hydroxypropylcellulose) (HPC)) was 97 % of control; the T/C (dose: 10.0 mg/kg/injection, schedule: Q04DX003 (ip), vehicle: Klucel (hydroxypropylcellulose) (HPC)) was 105 % of control.
Turning to `Nc1cccc2cc3ccccc3[n+]([O-])c12`, the T/C is 104 % of control under setting [1], 108 % of control under setting [2] and 95 % of control under setting [3].
In the same order, the values of `CCCCCC(=O)C(CCCC)C(=O)Nc1ccccc1` (stereo unspecified) are 94 % of control, 96 % of control and 91 % of control.
On to `O=C1NC2(CCCC2)C(=O)N2CCCC12` (stereo unspecified), for which the T/C is 93 % of control (dose: 50.0 mg/kg/injection, schedule: Q04DX003 (ip), vehicle: Klucel (hydroxypropylcellulose) (HPC)); 93 % of control (dose: 100.0 mg/kg/injection, schedule: Q04DX003 (ip), vehicle: Klucel (hydroxypropylcellulose) (HPC)); 97 % of control (dose: 200.0 mg/kg/injection, schedule: Q04DX003 (ip), vehicle: Klucel (hydroxypropylcellulose) (HPC)).
